Test results reported in article PMC7212882, “Efficacy and pharmacodynamics of niraparib in BRCA-mutant and wild-type intracranial triple-negative breast cancer murine models” (Neuro-oncology Advances, 2019).
Read-outs that look alike come from different tables or passages of the source. Marks after values point to notes of the source that are not given here.

Assays:
MDA-MB-231Br = conditions: intracranial MDA-MB-231Br
Experimental: (§1) All animal studies protocols were approved by the University of North Carolina (UNC), Chapel Hill Institutional Animal Care and Use Committee, executed by the UNC Animal Studies Core, and performed as described previously.[23],[27] For IC injections, cells were harvested in log-phase growth and suspended in Hank's Balanced Salt Solution + 0.5% FBS. Eight- to 10-week Foxn1 nu/nu female mice (UNC Animal Studies Core) were implanted with 200 000 cells/5 µl of suspension through stereotactic IC injection in the right striatum. Animal weights were collected from injection to death 3 times weekly. To determine tumor volumes, mice were anesthetized, injected intraperitoneally with D-luciferin dissolved in phosphate-buffered saline (150 mg/kg; Caliper Life Sciences, Hopkinton, MA), and then imaged by IVIS Lumina camera (Caliper Life Sciences). Images were analyzed with Living Image 4.0 software (Caliper Life Sciences). All values were corrected for background and recorded as photons/s.
(§2) For efficacy studies, mice were given a daily oral gavage of 50 mg/kg niraparib or vehicle (0.5% methylcellulose). To determine median survival, animals were sacrificed when weights decreased […] of an individual mouse’s maximum weight. For pharmacodynamic and pharmacokinetic studies, mice were grouped and treated as in efficacy studies for 2 weeks. At 4 h from last niraparib dose, IC tumor, peri-tumoral tissue (2 mm around the perimeter of a tumor), and contralateral brain were dissected, snap frozen, and stored frozen for each mouse and stored at –80°C.
(§3) The Kaplan–Meier method and log-rank test were used to estimate and compare median survival between treatment groups.
(§4) Both fold change in tumor volumes and weight over time were determined relative to treatment start date. Linear mixed models, with a random intercept and slope, were used to evaluate changes over time, overall and between groups (SAS, v9.3)

MDA-MB-436 [1] = tested on: MDA-MB-436
Experimental: as §1, §2, §3, §4

SUM149 [2] = tested on: SUM149
Experimental: as §1, §2, §3, §4

PARP [3] = conditions: in vivo, niraparib daily 2 weeks
Experimental: as §2, with “For efficacy studies, treatment started at day 7 for MDA-MB-231Br, day 14 for SUM149, and day 14 for MDA-MB-436. […] For efficacy” for “For efficacy”
(§5) 25–50 mg of tumor tissue were homogenized per protocol, and lysates were used to quantify PAR (pg/ml) using a chemiluminescent enzyme-linked immunosorbent assay (ELISA) in comparison to provided standards (Trevigen, HT PARP in vivo Pharmacodynamic Assay II, #4520-096-K). PAR values were normalized across models to 100 µg of lysate.
(§6) A 2-way ANOVA with Tukey’s test and P-value correction for multiple comparisons was used to compare tissue levels of niraparib (pharmacokinetics) or PAR (pharmacodynamics). A t-test was used to compare PAR levels in MDA-MB-436 cells treated in vitro (GraphPad Prism, v7.04)

PARP [4] = conditions: MDA-MB-436 cells in vitro; vehicle 3821.1; P = .034
Experimental: as §5, §6

[5] = mouse, in vivo
PARP1/2 = conditions: read-out: in vitro IC50s; dual PARP1/2 inhibitor; cited from earlier work
[6] = tested on: cells with BRCA1/BRCA2 deficiencies; conditions: read-out: in vitro CC50; cited from earlier work
SUM149 [7] = conditions: read-out: 5–7 day CC50; cited from earlier work
MDA-MB-436 [8] = conditions: read-out: 5–7 day CC50; cited from earlier work
MDA-MB-436 [9] = conditions: subcutaneous flank model, female nude mice, 100 mg/kg once daily or 50 mg/kg twice daily; cited from earlier work

Q: Which results are given for `NC(=O)c1cccc2cn(-c3ccc([C@@H]4CCCNC4)cc3)nc12` [niraparib, 2-{4-[(3S)-piperidin-3-yl]phenyl}-2H-indazole-7-carboxamide]?
A: median survival (MDA-MB-231Br; 50 mg/kg daily oral gavage, P = .21 vs vehicle (23 days)): 22 days; weight changes vs vehicle (MDA-MB-231Br; 50 mg/kg daily, P = .21): did not differ significantly; tumor volumes measured by luciferase activity vs vehicle (MDA-MB-231Br; 50 mg/kg daily, P = .7): did not differ significantly; body weight (MDA-MB-436 [1]; intracranial MDA-MB-436, 50 mg/kg daily, control mice lost weight, P < .0001): maintained normal weight; mice alive at day 70 (MDA-MB-436 [1]; intracranial MDA-MB-436, 50 mg/kg daily, day 70, end of study): 100%; suppression of tumor bioluminescence (MDA-MB-436 [1]; intracranial MDA-MB-436, 50 mg/kg daily, for the extent of the experiment): greater than 90%; increase in median survival (MDA-MB-436 [1]; intracranial MDA-MB-436, 50 mg/kg daily, study ended day 70, untreated median 50 days, P < .0001): at least 20 days; increase over untreated median survival (MDA-MB-436 [1]; intracranial MDA-MB-436, 50 mg/kg daily, untreated median 50 days): more than 40%; average tumor bioluminescence (MDA-MB-436 [1]; intracranial MDA-MB-436, day 35, after 3 weeks of treatment, control 1.15 × 10^9, P < .0001): 9.56 × 10^7 photons/s; median survival (SUM149 [2]; intracranial SUM149, 50 mg/kg daily oral gavage, P = .30 vs vehicle (33 days)): 34 days; tumor volumes measured by luciferase activity vs vehicle (SUM149 [2]; intracranial SUM149, 50 mg/kg daily, P = .06): did not differ significantly; weight changes vs vehicle (SUM149 [2]; intracranial SUM149, 50 mg/kg daily, P = .14): did not differ significantly; PAR levels, mean (PARP [3]; intracranial MDA-MB-436 tumors, vehicle 195.2, P = .99): 145.7 picogram PAR per microgram tissue; PAR levels, mean (PARP [3]; intracranial SUM149 tumors, vehicle 4054.5, P = .0027): 433.1* picogram PAR per microgram tissue; PAR levels, mean (PARP [4]): 248.2* picogram PAR per microgram tissue; tolerability [5]: well tolerated; IC50 (PARP1/2): […]; CC50 [6]: 10 to 100 nM; CC50 (SUM149 [7]): 24 nM; CC50 (MDA-MB-436 [8]): 18 nM; in vivo tumor growth (MDA-MB-436 [9]): inhibited
